In patent publication EP0426314B1, “HIV related peptides” (VIRAL TECHNOLOGIES, INC., priority 1989, dated 1995):

How the values were obtained:
[1] = system: sera from four Rhesus Monkeys given live HIV-1; assay: ELISA of sera from Rhesus monkeys given live HIV-1 for antibodies to p17 peptides (Figure 5); assay type: binding; details: result in words
Description: • Figure 1 is a schematic drawing illustrating the proposed orientation for the p17 gag protein of HIV; • Figure 2 is a chart depicting the primary amino acid sequences of HIV-1 p17 (strain HB10) and also of the p17 proteins of HIV-2 and SIV; • Figure 3 is another chart depicting the primary amino acid sequence of the peptides in p17; • Figure 4 is a graph plotting antibody titers of HIV p17 peptides in rabbits immunized with native HIV p17; and • Figure 5 is a bar graph illustrating the results of ELISA analysis of sera from 4 Rhesus monkeys exposed to live HIV antibodies to the p17 peptide fragments of this invention.
In another test, sera from four Rhesus Monkeys given live HIV-1 were also evaluated for antibodies to Peptides A, B, C, D and E and the results are shown in Figure 5. […] Sera from individuals who had been naturally exposed to the HIV virus and were seropositive for p17 were also evaluated.

[2] = system: antibodies of a rabbit immunized with native (intact) HIV p17; assay: Antibody titers to p17 peptides in a rabbit immunized with native HIV p17 (Figure 4); assay type: binding; details: rabbit immunized with HPLC-purified native HIV p17, synthetic peptide analogs, result in words

“Peptide A: p17 gag HIV protein fragment, positions 1-32, formula (II); sequence only in image I00003 (GARASVLSGGELDRWEKIRLRPGGKKKYKLKH; Matrix protein p17; UniProt P04591 2-33, looked up, fragment)” was tested, and the antibody response [1] was “strong antibody response in at least one of the challenged monkeys”.

In the case of “Peptide B: p17 gag HIV protein fragment, positions 33-50, formula (III); sequence only in image I00004 (IVWASRELERFAVNPGLL; Matrix protein p17; UniProt P04591 34-51, looked up, fragment)”, the antibody response [1] was “strong antibody response in at least one of the challenged monkeys”.

With “Peptide C: p17 gag HIV protein fragment, positions 51-84, formula (IV); sequence only in image I00005 (ETSEGCRQILGQLQPSLQTGSEELRSLYNTVATL; Matrix protein p17; UniProt P04591 52-85, looked up, fragment)” the antibody response [1] was “strong antibody response in at least one of the challenged monkeys” and the antibody titers [2] was “highest titers”.
